Biological target: T1, penicillin-binding protein 3 (PBP3) (Pseudomonas aeruginosa, UniProt G3XD46)
T1 construct: gene ftsI; final PBP3 model contains residues 57–190, 213–490, and 501–561
Test: X-ray crystal structure ([…] Å, soak); also Bocillin competition assay (IC50) and DSF thermal shift (about […] °C)

T1 sequence (G3XD46 50-579): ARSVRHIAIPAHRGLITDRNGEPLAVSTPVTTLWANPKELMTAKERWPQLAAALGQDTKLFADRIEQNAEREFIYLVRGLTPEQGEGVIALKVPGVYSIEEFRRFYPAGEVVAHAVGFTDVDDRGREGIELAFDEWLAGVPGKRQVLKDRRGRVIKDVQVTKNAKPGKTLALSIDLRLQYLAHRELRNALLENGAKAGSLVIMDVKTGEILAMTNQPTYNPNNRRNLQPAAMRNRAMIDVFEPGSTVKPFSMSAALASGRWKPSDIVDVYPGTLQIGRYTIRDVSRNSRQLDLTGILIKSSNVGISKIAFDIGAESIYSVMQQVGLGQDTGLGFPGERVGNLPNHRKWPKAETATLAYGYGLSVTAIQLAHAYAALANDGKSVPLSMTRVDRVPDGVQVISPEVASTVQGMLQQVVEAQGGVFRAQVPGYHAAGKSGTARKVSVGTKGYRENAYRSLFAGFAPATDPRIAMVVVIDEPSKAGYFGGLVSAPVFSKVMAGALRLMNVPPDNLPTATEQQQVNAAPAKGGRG

O=C(O)C[C@@H]1CC[C@H](NC(=O)Cc2cccs2)B(O)O1 [vaborbactam]
IC50: 262 µM
